Measurements reported in US9919034B2, “Methods of treating and prophylactically protecting mammalian patients infected by viruses classified in Baltimore group V” (priority 2014, dated 2018).

Tested on: Rabies virus
Assay type: cell-based

Q: ranpirnase was tested. Which “activity against rabies (SI, FIG. 1)” value did it give?
A: Its value is “extraordinarily active”.
